Laboratory results reported in EPA's ToxRefDB 2.

Legend:
[1] = system: rat; settings: Subchronic oral toxicity in rodents, other, Feed, dose end: 13 week, group: systemic, systemic / clinical chemistry / urea nitrogen / urea
[2] = system: dog; settings: Chronic toxicity; beagle; Oral; Feed; dose end: 52 week; group: systemic; systemic / clinical chemistry / albumin / albumin + systemic / clinical chemistry / calcium / calcium + systemic / clinical chemistry / …
[3] = system: rat; settings: Subchronic oral toxicity in rodents, Feed, dose end: 13 week, group: systemic
[4] = system: mouse; settings: Subchronic oral toxicity in rodents, cd1, Feed, dose end: 13 week, group: systemic
[5] = system: rat; settings: Prenatal developmental toxicity study, fischer, Oral, Gavage/Intubation, dose end: 15 GD
[6] = system: rabbit; settings: Prenatal developmental toxicity study, new zealand white, Dermal, Topical, dose end: 18 GD
[7] = system: rabbit; settings: Prenatal developmental toxicity study, new zealand white, Oral, Capsule, dose end: 18 GD
[8] = systemic / in life observation / body weight / body weight
[9] = systemic / in life observation / body weight / body weight + systemic / clinical chemistry / urea nitrogen / urea + systemic / urinalysis / …
[10] = systemic / in life observation / body weight / body weight + systemic / organ weight / liver / relative to body weight
[11] = group: developmental, developmental / developmental malformation / bone / ossification sites + developmental / developmental malformation / bone / supernumerary
[12] = group: maternal, systemic / in life observation / body weight / body weight
[13] = group: developmental, developmental / developmental malformation / bone / supernumerary + developmental / developmental malformation / bone / unossified + …
[14] = group: maternal, systemic / in life observation / body weight / body weight gain
[15] = group: developmental, developmental / developmental malformation / bone / supernumerary + developmental / developmental malformation / gallbladder / [other] + …
[16] = group: maternal, reproductive / reproductive performance / aborted / aborted + reproductive / reproductive performance / postimplantation loss / …
[17] = group: maternal, systemic / in life observation / body weight / body weight + systemic / in life observation / body weight / body weight gain + systemic / in…

For `CCNc1nc(Cl)nc(NC(C)(C)C#N)n1` [Cyanazine], the LEL [1] was 0.075 mg/kg/day, the LOAEL [1] was 0.075 mg/kg/day and the NEL [1] was less than 0.075 mg/kg/day. It also gave an NOAEL [1] of less than 0.075 mg/kg/day, an LEL [2] of 3.02 mg/kg/day and an LOAEL [2] of 3.02 mg/kg/day. It also gave an NEL [2] of 0.72 mg/kg/day, an NOAEL [2] of 0.72 mg/kg/day and an LOAEL [3, 8] of 0.005 mg/kg/day. For the same compound, the NOAEL [3, 8] was less than 0.005 mg/kg/day, the LEL [3, 9] was 0.005 mg/kg/day and the NEL [3, 9] was less than 0.005 mg/kg/day. The LOAEL [4, 8] was 75 mg/kg/day, the LEL [4, 10] was 75 mg/kg/day and the NEL [4, 10] was 7.5 mg/kg/day. For the same compound, the NOAEL [4, 10] was 7.5 mg/kg/day, the LEL [5, 11] was 5 mg/kg/day and the LOAEL [5, 11] was 5 mg/kg/day. It also gave an NEL [5, 11] of less than 5 mg/kg/day, an NOAEL [5, 11] of less than 5 mg/kg/day and an LEL [5, 12] of 5 mg/kg/day. The LOAEL [5, 12] was 5 mg/kg/day, the NEL [5, 12] was less than 5 mg/kg/day and the NOAEL [5, 12] was less than 5 mg/kg/day. For the same compound, the LOAEL ([6]; group: developmental, developmental / developmental malformation / bone / supernumerary + developmental / developmental malformation / bone / unossified) was 955 mg/kg/day, the NEL [6, 13] was 286 mg/kg/day and the NOAEL [6, 13] was 573 mg/kg/day. It also gave an LEL ([6]; group: developmental, systemic / in life observation / body weight / fetal weight) of 573 mg/kg/day, an LEL [6, 14] of 96 mg/kg/day and an LOAEL [6, 14] of 96 mg/kg/day. For the same compound, the NEL [6, 14] was less than 96 mg/kg/day, the NOAEL [6, 14] was less than 96 mg/kg/day and the LOAEL ([7]; group: developmental, developmental / developmental malformation / bone / absent + developmental / developmental malformation / bone / supernumerary) was 2 mg/kg/day. It also gave an NOAEL ([7]; group: developmental, developmental / developmental malformation / bone / absent + developmental / developmental malformation / bone / supernumerary + …) of 1 mg/kg/day, an LEL [7, 15] of 1 mg/kg/day and an NEL [7, 15] of less than 1 mg/kg/day. It also gave an LOAEL [7, 16] of 2 mg/kg/day, an NOAEL [7, 16] of 1 mg/kg/day and an LEL [7, 17] of 1 mg/kg/day. The NEL [7, 17] was less than 1 mg/kg/day.
